In patent US20260034150A1, “CANNABIDIOL FOR USE IN TREATING OR PREVENTING RECURRENT PERICARDITIS” (CARDIOL THERAPEUTICS INC., priority 2022, published 2026):
“And” between values parts separate entries of the source, which are not always exact repeats. Equal values may be shown once.

Assays:
[1] = system: NLRP3 inflammasome; assay: IL-1β ELISA in the in vitro model of NLRP3 inflammasome activation (LPS + ATP); format: cell-based, mouse; settings: for attenuation of the increase in IL-1β: CBD 10 μM, LPS + ATP
Description: An experiment was performed to determine the effect of 10 μM cannabidiol on NLRP3 inflammasome activation in an in vitro model as follows. J774A.1 mouse macrophages were cultured in 96-well plates (15,000 cells/well) and divided into the following groups to which various treatments described below were administered during a period of six hours: • 1. Group 1 (CNT)—cells received nothing during the 6-hour treatment period. • 2. Group 2 (LPS)—cells received LPS (1 μg/ml) for 6 hours. • 3. Group 3 (ATP)—cells received nothing for 5.5 hours and then ATP (5 mM) for the last 30 minutes. • 4. Group 4 (LPS+ATP)—cells received LPS (1 μg/mL) for 5.5 hours and ATP (5 mM) for the last 30 minutes. • 5. […] After 6 hours, 100 μL of a sample from each well of cells was collected and loaded as a single point in a specific ELISA assay that was used to measure the amount of IL-1β secreted by the macrophages in each sample. IL-1β is an indicator of and positively correlated with NLRP3 inflammasome activation. An experiment was performed to evaluate the effect of different doses of cannabidiol (10, 1, 0.1, and 0.01 μM) using the in vitro model of Example 1A. In this experiment, J774A.1 mouse macrophages were cultured in 96-well plates (15,000 cells/well) and divided into the following groups to which various treatments described below were administered during a period of six hours: • 1. Group 1 (Control)—cells received nothing during the 6-hour treatment period. • 2. Group 2 (LPS+ATP)—cells received LPS (1 μg/mL) for 5.5 hours and ATP (5 mM) for the last 30 minutes. • 3. […] After 6 hours, 100 μL of a sample from each well of cells was collected and loaded as a single point in a specific ELISA assay that was used to measure the amount of IL-1β in each sample.

[2] = system: IL-6; assay: IL-6 ELISA in LPS-treated macrophages (in vitro model of inflammation); format: cell-based, mouse; settings: CBD 10 μM + LPS 1 μg/mL for 6 hours; J774A.1
Description: Experiments were performed to evaluate cannabidiol's anti-inflammatory activity and mechanism of action. The secretion of IL-6 and the transcription of the NLRP3 inflammasome components, pro-IL-1β mRNA, and NLRP3 mRNA, are regulated by the NF-κβ pathway and activated by LPS. In a first experiment, J774A.1 mouse macrophages were cultured in 96-well plates (15,000 cells/well) and divided into the following groups to which various treatments described below were administered during a period of six hours: • 1. Group 1 (Control)—cells received nothing during the 6 hours treatment period. • 2. Group 2 (LPS)—cells received LPS (1 μg/ml) for 6 hours. • 3. […] After 6 hours, 100 μL of a sample from each well of cells was collected and loaded as a single point in a specific ELISA assay that was used to measure the amount of IL-6 in each sample. […] A second experiment was performed to evaluate the effect of cannabidiol on the transcription of components of the NLRP3 inflammasome, namely, pro-IL-1β mRNA and NLRP3 mRNA. In this second experiment, J774A.1 mouse macrophages were cultured in individual plates (1,000,000 cells/well) and divided into the following groups to which various treatments described below were administered during a period of six hours. • 1. Group 1 (Control)—cells received nothing during the 6 hours treatment period. • 2. […]

[3] = system: pro-IL-1β mRNA; assay: PCR of pro-IL-1β mRNA transcription in LPS-treated macrophages; format: cell-based, mouse; settings: CBD 10 μM + LPS 1 μg/mL for 6 hours; J774A.1
Description: (§1) Experiments were performed to evaluate cannabidiol's anti-inflammatory activity and mechanism of action. The secretion of IL-6 and the transcription of the NLRP3 inflammasome components, pro-IL-1β mRNA, and NLRP3 mRNA, are regulated by the NF-κβ pathway and activated by LPS. After 6 hours, 100 μL of a sample from each well of cells was collected and loaded as a single point in a specific ELISA assay that was used to measure the amount of IL-6 in each sample. […] A second experiment was performed to evaluate the effect of cannabidiol on the transcription of components of the NLRP3 inflammasome, namely, pro-IL-1β mRNA and NLRP3 mRNA. In this second experiment, J774A.1 mouse macrophages were cultured in individual plates (1,000,000 cells/well) and divided into the following groups to which various treatments described below were administered during a period of six hours. • 1. Group 1 (Control)—cells received nothing during the 6 hours treatment period. • 2. Group 2 (LPS)—cells received LPS (1 μg/ml) for 6 hours. • 3. […] At the end of the six-hour treatment period, samples from each group were collected and processed using Polymerase Chain Reaction (PCR) to measure the level of transcription of pro-IL-1B mRNA and NLRP3 mRNA in the samples.

[4] = system: NLRP3 mRNA; assay: PCR of NLRP3 mRNA transcription in LPS-treated macrophages; format: cell-based, mouse; settings: CBD 10 μM + LPS 1 μg/mL for 6 hours; J774A.1
Description: as §1

[5] = system: mouse model of pericarditis; assay: Mouse model of pericarditis (Zymosan A): pericardial space by transthoracic echocardiography; format: in vivo
Description: (§2) Experiments were conducted using a mouse model of pericarditis described in Mauro et al. (10), which mouse model is incorporated herein by reference for its disclosure of the mouse model.
(§3) Adult Institute of Cancer Research (IRC) mice (10 weeks of age) supplied by Harlan Laboratories (Harlan Sprague Dawley Inc.) were used and divided into the following treatment groups, with each group consisting of 4-5 mice: • 1. Group 1 (NaCl+Veh)—mice received normal saline (0.9% w/v NaCl) in the surgical procedure described below and were subsequently treated for seven days with a vehicle consisting of ethanol:Cremophor EL:water (1:1:18). • 2. Group 2 (NaCl+)—mice received normal saline (0.9% w/v NaCl) in the surgical procedure described below and were subsequently treated for seven days with cannabidiol at a dose of 10 mg/kg. The cannabidiol was dissolved in the same vehicle as the vehicle used for Group 1. • 3. Group 3 (Zym+Veh)—mice received Zymosan A in the surgical procedure described below and were subsequently treated for seven days with the same vehicle as the vehicle used for Group 1. • 4. […] The cannabidiol was dissolved in the same vehicle as the vehicle used for Group 1. • 5. […] The cannabidiol was dissolved in the same vehicle as the vehicle used for Group 1.
The mice of all four treatment groups were anesthetized, intubated orotracheally, and placed in the right lateral decubitus position. A left thoracotomy was then performed. Under direct visualization and using a 30 Gauge needle, 1 mg of Zymosan A (referred to herein also as “zymosan”) dissolved in 50 μl of sterile normal saline (0.9% w/v NaCl) was delivered into the pericardial space of the mice of Groups 3 and 4 by carefully lifting the pericardial sac with forceps until a complete distribution of the solution into the pericardium was achieved. […] All mice received analgesia for the peri-operative period.
For all groups, treatments with either cannabidiol dissolved in vehicle, or vehicle alone, were administered intraperitoneally (IP) every day for seven days with the first treatment administered approximately 30 minutes after the surgery.
On day seven, echocardiography was performed on the mice of all groups under light anesthesia using a Prospect™ T1 ultrasound imaging system (Scintica, London, Canada). In this procedure, the left ventricle in the parasternal short-axis view at the mid-ventricular level was visualized in the bi-dimensional mode (B-mode). The image was optimized for the anterior wall, and the image was zoomed in to visualize the anterior pericardial structures. After optimization of the image, amono-dimensional mode (M-mode) was acquired for optimal spatial-temporal resolution. An investigator blinded to group allocation measured the maximal pericardial space between the 2 layers of the pericardium in both M- and B-mode. The pericardial space is a one-dimensional measure of pericardial effusion.

[6] = system: mouse model of pericarditis; assay: Mouse model of pericarditis (Zymosan A): pericardial thickness by histochemistry; format: in vivo; settings: day seven, differences not statistically significant
Description: as §2, §3
The mice of all four treatment groups were anesthetized, intubated orotracheally, and placed in the right lateral decubitus position. A left thoracotomy was then performed. […]
Following echocardiography, and on day seven, the mice were sacrificed, and their hearts were explanted and processed for pathology. […] An investigator blinded to group allocation measured the pericardial thickness with the aid of computer morphometry using Image-Pro™ Plus 6.0 software (Media Cybernetics, Silver Spring, MD).

## C=C(C)[C@@H]1CCC(C)=C[C@H]1c1c(O)cc(CCCCC)cc1O [CBD, 2-[(1R,6R)-3-methyl-6-prop-1-en-2-ylcyclohex-2-en-1-yl]-5-pentylbenzene-1,3-diol]
[1]; CBD 10 μM + LPS + ATP versus LPS + ATP, J774A.1
  IL-1β concentration versus LPS+ATP group (FIG. 1A): significantly lower concentrations of IL-1β
[1]; CBD 10, 1, 0.1 and 0.01 μM + LPS + ATP, J774A.1
  effect of different concentrations on IL-1β (FIG. 1B): effective to attenuate the increase in IL-1β in a dose dependent fashion
[1]; CBD alone 10 μM, no LPS or ATP, J774A.1
  IL-1β with CBD alone versus Control group: no different than the Control group
[1]; Table 1A.1, J774A.1 macrophages, CBD 10 μM alone for 6 hours, mean
  IL-1β Concentration, CBD, Mean: 6 pg/mL
[1]; Table 1A.1, J774A.1 macrophages, CBD 10 μM alone for 6 hours, single wells
  IL-1β Concentration, CBD: 5.9 pg/mL and 6.1 pg/mL
[1]; Table 1A.1, J774A.1, CBD 10 μM + LPS 1 μg/mL 5.5 hours, ATP 5 mM last 30 minutes, mean
  IL-1β Concentration, CBD + LPS + ATP, Mean: 118.725 pg/mL
[1]; Table 1A.2 (repeat), J774A.1, CBD 10 μM alone, single wells
  IL-1β Concentration, CBD: 7.86 pg/mL and 6.35 pg/mL and 8.81 pg/mL and 9.46 pg/mL and 10.46 pg/mL and 8.97 pg/mL
[1]; Table 1A.3 (repeat), J774A.1, CBD 10 μM + LPS + ATP, single wells
  IL-1β Concentration, LPS + ATP + CBD: 10.8 pg/mL and 17 pg/mL and 11.31 pg/mL and 18.96 pg/mL
[1]; Table 1A.4, mean of Tables 1A.2 and 1A.3, CBD 10 μM + LPS + ATP
  IL-1β Concentration, LPS + ATP + CBD, Mean: 19.44 pg/mL
[1]; Table 1A.4, mean of Tables 1A.2 and 1A.3, CBD 10 μM alone
  IL-1β Concentration, CBD, Mean: 8.898 pg/mL
[1]; calculated from Table 1A.1 means
  attenuation of the increase in IL-1β: over 70%
[1]; calculated from Table 1A.4 means
  attenuation of the increase in IL-1β: about 97.65%
[2]
  effect on LPS-induced increase in IL-6 (FIG. 1C): attenuated this increase completely
[3]
  effect on LPS-induced transcription of pro-IL-1β mRNA (FIG. 1D): significantly attenuated these increases
[4]
  effect on LPS-induced transcription of NLRP3 mRNA (FIG. 1E): significantly attenuated these increases
[5]; Zymosan A mice, CBD 1 mg/kg IP daily for seven days
  effect on increase in measured pericardial space, Zym+CBD 1 mg/kg (FIG. 2): attenuated the increase in the measured pericardial space to the same degree as cannabidiol at a dose of 10 mg/kg
[5]; Zymosan A mice, CBD 10 mg/kg IP daily for seven days, day seven, mean
  Measured pericardial space, Zym + CBD, Mean: 0.1177 mm
[5]; Zymosan A mice, CBD 10 mg/kg IP daily for seven days, day seven, single mice
  Measured pericardial space, Zym + CBD: 0.103 mm and 0.152 mm and 0.112 mm and 0.104 mm
[5]; Zymosan A mice, CBD 10 mg/kg IP, differences not statistically significant
  pericardial space versus Group 1 (Saline+Veh), Zym+CBD: did not develop a pericardial space greater than that of the mice of Group 1
[5]; calculated from Table 2 means, Zymosan A mice, CBD 10 mg/kg IP
  attenuation of the increase in the measured pericardial space: at least 85%
[5]; sham (saline) mice, CBD 10 mg/kg IP daily for seven days, day seven, single mice
  Measured pericardial space, Saline + CBD: 0.098 mm and 0.097 mm and 0.105 mm
[5]; sham mice, CBD 10 mg/kg IP, differences not statistically significant
  pericardial space versus Group 1 (Saline+Veh), Saline+CBD: did not develop a pericardial space greater than that of the mice of Group 1
[6]; Zymosan A mice, CBD 1 mg/kg IP
  pericardial thickness versus Group 1 (NaCl+Veh), Zym+CBD 1 mg/kg: did not develop a pericardial thickness different from that of the mice of Group 1
[6]; Zymosan A mice, CBD 10 mg/kg IP
  pericardial thickness versus Group 1 (NaCl+Veh), Zym+CBD 10 mg/kg (FIG. 3): did not develop a pericardial thickness different from that of the mice of Group 1
[6]; sham mice, CBD 10 mg/kg IP
  pericardial thickness versus Group 1 (NaCl+Veh), NaCl+CBD (FIG. 3): did not develop a pericardial thickness different from that of the mice of Group 1
